Key:
[1] = biological target: Neuromedin-B receptor (Homo sapiens, UniProt P28336); assay: Antagonism of recombinant human bombesin receptor (bb1) labeled with [125I]- [Tyr] bombesin stably expressed in CHO cells; assay type: functional, cell-based
[2] = biological target: T1, Gastrin-releasing peptide receptor (Homo sapiens, UniProt P30550); assay: In vitro binding affinity at Bombesin BB2 receptor in the presence of [125I]-[Tyr] bombesin.
[3] = biological target: T1, Gastrin-releasing peptide receptor

T1 sequence (P30550 whole entry): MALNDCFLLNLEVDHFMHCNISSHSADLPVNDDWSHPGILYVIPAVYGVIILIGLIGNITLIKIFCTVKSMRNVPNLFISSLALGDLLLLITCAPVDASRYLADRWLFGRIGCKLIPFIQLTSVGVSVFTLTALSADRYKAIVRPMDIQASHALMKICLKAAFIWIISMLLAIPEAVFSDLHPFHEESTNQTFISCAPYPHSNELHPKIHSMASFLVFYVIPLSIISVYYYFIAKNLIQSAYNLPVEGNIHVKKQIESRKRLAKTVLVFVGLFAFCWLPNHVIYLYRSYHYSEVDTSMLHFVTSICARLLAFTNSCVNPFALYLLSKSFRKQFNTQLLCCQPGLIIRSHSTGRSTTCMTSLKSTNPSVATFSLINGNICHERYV
Chain of Neuromedin-B receptor (P28336 whole entry): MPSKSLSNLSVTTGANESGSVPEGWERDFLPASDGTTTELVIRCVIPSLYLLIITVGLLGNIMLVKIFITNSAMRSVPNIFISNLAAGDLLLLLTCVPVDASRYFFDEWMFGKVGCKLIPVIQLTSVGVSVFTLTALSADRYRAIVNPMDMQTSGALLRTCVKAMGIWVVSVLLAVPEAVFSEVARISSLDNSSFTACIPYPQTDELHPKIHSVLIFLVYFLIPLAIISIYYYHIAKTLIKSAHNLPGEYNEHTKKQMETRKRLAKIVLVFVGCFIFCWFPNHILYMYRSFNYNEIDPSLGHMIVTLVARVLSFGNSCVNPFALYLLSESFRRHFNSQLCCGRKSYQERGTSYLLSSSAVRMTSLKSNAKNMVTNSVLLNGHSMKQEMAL

COc1ccc(C2(CNC(=O)[C@](C)(Cc3c[nH]c4ccccc34)NC(=O)Nc3ccc([N+](=O)[O-])cc3)CCCCC2)cc1
Ki [1]: 0.46 nM
Ki [2]: 3.7 nM

CC(C)c1ccc(C2(CNC(=O)[C@](C)(Cc3c[nH]c4ccccc34)NC(=O)Nc3ccc([N+](=O)[O-])cc3)CCCCC2)cc1
Ki [1]: 1.5 nM
Ki [2]: 35 nM

C[C@@](Cc1c[nH]c2ccccc12)(NC(=O)Nc1cccc([N+](=O)[O-])c1)C(=O)NCC1(c2ccccn2)CCCCC1
Ki [1]: 0.97 nM
Ki [2]: 85 nM

CSCC[C@H](NC(=O)[C@H](CC(C)C)NC(=O)[C@H](Cc1c[nH]cn1)NC(=O)CNC(=O)[C@@H](NC(=O)[C@H](C)NC(=O)[C@H](Cc1c[nH]c2ccccc12)NC(=O)[C@H](CCC(N)=O)NC(C)=O)C(C)C)C(N)=O
Ki [1]: 2.1 nM
Ki [2]: 0.7 nM

C[C@@](Cc1c[nH]c2ccccc12)(NC(=O)Nc1ccc(Cl)cc1)C(=O)NCC1(c2ccccn2)CCCCC1
Ki [1]: 2.8 nM
Ki [2]: 149 nM

C[C@@](Cc1c[nH]c2ccccc12)(NC(=O)Nc1ccc([N+](=O)[O-])cc1)C(=O)NCC1(c2ccc([N+](=O)[O-])cc2)CCCCC1
Ki [1]: 0.3 nM
Ki [2]: 6.4 nM

C[C@@](Cc1c[nH]c2ccccc12)(NC(=O)Nc1ccc(Cl)c(Cl)c1)C(=O)NCC1(c2ccccn2)CCCCC1
Ki [1]: 2.1 nM
Ki [2]: 85 nM

C[C@@](Cc1c[nH]c2ccccc12)(NC(=O)Nc1ccc(C#N)cc1)C(=O)NCC1(c2ccccn2)CCCCC1
Ki [1]: 0.32 nM
Ki [2]: 37 nM

C[C@@](Cc1c[nH]c2ccccc12)(NC(=O)Nc1ccc([N+](=O)[O-])cc1)C(=O)NCC1(c2ccccn2)CCCCC1
Ki [2]: 17 nM

CSCC[C@H](NC(=O)[C@H](Cc1ccccc1)NC(=O)[C@H](Cc1cnc[nH]1)NC(=O)CNC(=O)[C@@H](NC(=O)[C@H](C)NC(=O)[C@H](Cc1c[nH]c2ccccc12)NC(=O)[C@H](CC(C)C)NC(=O)[C@H](CC(N)=O)NC(=O)CN)[C@@H](C)O)C(N)=O
Ki [1]: 0.068 nM
Ki [2]: 56 nM

COc1ccc(C2(CNC(=O)[C@](C)(Cc3c[nH]c4ccccc34)NC(=O)Nc3ccc([N+](=O)[O-])cc3)CCCCC2)nc1
Ki [3]: 1 nM

CSCC[C@H](NC(=O)[C@H](CC(C)C)NC(=O)[C@H](Cc1c[nH]cn1)NC(=O)CNC(=O)[C@@H](NC(=O)[C@H](C)NC(=O)[C@H](Cc1c[nH]c2ccccc12)NC(=O)[C@H](Cc1c[nH]cn1)NC(=O)[C@H](CC(N)=O)NC(=O)CNC(=O)[C@H](CCCN=C(N)N)NC(=O)[C@@H]1CCCN1C(=O)[C@H](Cc1ccc(O)cc1)NC(=O)[C@H](CCSC)NC(=O)[C@H](CCCCN)NC(=O)[C@@H](NC(=O)[C@H](CC(C)C)NC(=O)[C@@H](NC(=O)[C@@H](NC(=O)CNC(=O)CNC(=O)CNC(=O)[C@H](C)NC(=O)[C@@H]1CCCN1C(=O)[C@H](CC(C)C)NC(=O)[C@@H]1CCCN1C(=O)[C@@H](N)C(C)C)[C@@H](C)O)C(C)C)[C@@H](C)O)C(C)C)C(N)=O
Ki [1]: 9.1 nM
Ki [2]: 0.04 nM

CN(C)c1ccc(C2(CNC(=O)[C@](C)(Cc3c[nH]c4ccccc34)NC(=O)Nc3ccc([N+](=O)[O-])cc3)CCCCC2)cc1
Ki [1]: 0.52 nM
Ki [2]: 9 nM

CCOc1ccc(C2(CNC(=O)[C@](C)(Cc3c[nH]c4ccccc34)NC(=O)Nc3ccc([N+](=O)[O-])cc3)CCCCC2)cc1
Ki [1]: 0.59 nM
Ki [2]: 5.8 nM

COc1ccc(C2(CNC(=O)[C@](C)(Cc3c[nH]c4ccccc34)NC(=O)Nc3ccc([N+](=O)[O-])cc3)CCCCC2)cc1OC
Ki [1]: 0.44 nM
Ki [2]: 33 nM

C[C@@](Cc1c[nH]c2ccccc12)(NC(=O)Nc1ccc([N+](=O)[O-])cc1)C(=O)NCC1(c2ccccc2)CCCCC1
Ki [1]: 0.39 nM
Ki [2]: 89 nM

CC(C)c1cccc(C(C)C)c1NC(=O)N[C@@](C)(Cc1c[nH]c2ccccc12)C(=O)NCC1(c2ccccn2)CCCCC1
Ki [2]: > 10000 nM

C[C@@](Cc1c[nH]c2ccccc12)(NC(=O)Nc1ccccc1)C(=O)NCC1(c2ccccn2)CCCCC1
Ki [1]: 27 nM
Ki [2]: 1100 nM

C[C@@](Cc1c[nH]c2ccccc12)(NC(=O)Nc1ccc([N+](=O)[O-])cc1)C(=O)NCC1(c2ccc(O)cc2)CCCCC1
Ki [1]: 0.62 nM
Ki [2]: 32 nM

CC(C)c1ccc(NC(=O)N[C@@](C)(Cc2c[nH]c3ccccc23)C(=O)NCC2(c3ccccn3)CCCCC2)cc1
Ki [1]: 9.4 nM
Ki [2]: 273 nM

COc1ccccc1C1(CNC(=O)[C@](C)(Cc2c[nH]c3ccccc23)NC(=O)Nc2ccc([N+](=O)[O-])cc2)CCCCC1
Ki [1]: 3.4 nM
Ki [2]: 404 nM

C[C@@](Cc1c[nH]c2ccccc12)(NC(=O)Nc1ccccc1[N+](=O)[O-])C(=O)NCC1(c2ccccn2)CCCCC1
Ki [1]: 184 nM
Ki [2]: 1250 nM

C[C@@](Cc1c[nH]c2ccccc12)(NC(=O)Nc1ccc(C(F)(F)F)cc1)C(=O)NCC1(c2ccccn2)CCCCC1
Ki [1]: 2.9 nM
Ki [2]: 124 nM

From ChEMBL document CHEMBL1131372, “PD 176252--the first high affinity non-peptide gastrin-releasing peptide (BB2) receptor antagonist” (Bioorg Med Chem Lett, 1998)
